Publication PMC10452847 (Cancers, 2023)

What was measured:
RMS559 xenograft [1] = system: RMS559 xenograft; design: method as in PMID 36097178; conditions: RMS559 xenograft models; twice daily dosing, nude mice; cited from earlier work
SCMC xenograft [2] = assay: futibatinib single agent xenograft efficacy study; conditions: 5-25 mg/kg daily (SID) oral gavage, three weeks, vs vehicle
RH4 xenograft [3] = assay: futibatinib single agent xenograft efficacy study; conditions: 5-25 mg/kg daily (SID) oral gavage, three weeks, vs vehicle
RMS559 xenograft [4] = assay: triple combination xenograft efficacy study; type: in vivo, NSG mice; conditions: for median survival: futibatinib 10 mg/kg oral M-F 3 weeks, irinotecan 6 mg/kg iv once, vincristine 0.4 mg/kg iv once, vehicle 11
RMS559 xenograft [5] = assay: two-drug combination xenograft efficacy study; conditions: for median survival: futibatinib 15 mg/kg, irinotecan 25 mg/kg, vincristine 0.4 mg/kg, vehicle 23
RMS559 xenograft [6] = assay: futibatinib single agent xenograft efficacy study; conditions: 5-25 mg/kg daily (SID) oral gavage, three weeks, vs vehicle
RH4 xenograft [7] = assay: two-drug combination xenograft efficacy study; type: in vivo, NSG mice; conditions: futibatinib 15 mg/kg, irinotecan 25 mg/kg, vincristine 0.4 mg/kg, vehicle 39
[8] = system: phosphorylation of FGFR4 and ERK1/2 in RMS559; assay: Western blot of RMS559 treated with futibatinib; type: cell-based, human; conditions: increasing concentrations, 6 h
Protocol: Cells were collected with a cell scraper, then pelleted by centrifugation, washed with ice-cold PBS, and lysed in RIPA buffer with 1% HALT Protease and Phosphatase inhibitors. Lysates were sonicated to shear genomic DNA and clarified by centrifugation at 18,000× g for 20 min. The protein concentration of the resulting supernatant was determined by BCA assay. 20 μg of protein was run on NuPage 4–12% BisTris gels (Invitrogen, Carlsbad, CA, USA) and transferred to PVDF membranes (Invitrogen). Membranes were blocked in 5% nonfat dried milk in TBST for 1 h at room temperature and incubated with primary antibody overnight at 4 °C. HRP-conjugated anti-rabbit secondary antibody was used to probe the primary antibody. Protein was visualized using Amersham ECL Western Blotting Detection Reagent (Amersham, UK). The following antibodies were used: pFGFR4 (ab192589, Abcam, Cambridge, UK), FGFR4 (8562, Cell Signaling Technology (CST), Danvers, MA, USA), pERK1/2 (4370, CST), ERK1/2 (4695, CST), and GAPDH (8884, CST). Relative band intensity was quantified in Image Lab software (Version 5.2.1, Bio-Rad, Philadelphia, PA, USA)

SCMC xenograft [9] = assay: two-drug combination xenograft efficacy study; type: in vivo, NSG mice; conditions: for Days (survival, inset of Figure 4): SCMC xenograft, futibatinib 15 mg/kg, irinotecan 50 mg/kg decreased to 25 mg/kg, vincristine 0.4 mg/kg, vehicle 30
in vivo = conditions: NOD SCID Gamma (NSG), mouse, plasma, po, 25 mg/kg, 25 mg/kg oral gavage, single dose, SCMC tumor-bearing mice
[10] = system: advanced solid tumors with FGFR aberrations; conditions: 197 patients with advanced solid tumors with FGFR aberrations; cited from earlier work
[11] = two-drug combination tolerability study; type: in vivo, mice; conditions: futibatinib oral M-F three weeks, irinotecan iv Monday for three weeks, vincristine iv once
Protocol: Figure A4 Two-drug combination tolerability study. (A) Schematic of tolerability study. […] Irinotecan was given via tail vein injection at two dosages (75 mg/kg and 50 mg/kg) on Monday for three weeks. (B) Relative body weights of mice treated with the futibatinib-vincristine or futibatinib-irinotecan combinations.

[12] = system: mutant FGFR4-driven RMS tumor; design: method as in PMID 24124571; conditions: cited from earlier work

| SMILES | median survival (RMS559 xenograft [4]) | median survival (RMS559 xenograft [5]) | Days (survival, inset of Figure 4) (RH4 xenograft [7]) | Days (survival, inset of Figure 4) (SCMC xenograft [9]) | maximum tolerated dosages for the drug combinations [11] | further results |
| --- | --- | --- | --- | --- | --- | --- |
| COCCNc1cc(NC(=O)N2CCCc3cc(CN4CCN(C)CC4=O)c(C=O)nc32)ncc1C#N [FGF401] |  |  |  |  |  | effect on tumor progression (RMS559 xenograft [1]): effective at delaying tumor progression |
| C=CC(=O)N1CC[C@H](n2nc(C#Cc3cc(OC)cc(OC)c3)c3c(N)ncnc32)C1 [futibatinib] | 15 days | 23 days | 36 days | 33 days | 15 mg/kg | effect in delaying tumor growth or prolonging survival (SCMC xenograft [2]): no significant effect; effect in delaying tumor growth or prolonging survival (RH4 xenograft [3]): no significant effect; average tumor volume (RMS559 xenograft [4]; day 11 of treatment, futibatinib 10 mg/kg oral M-F, vehicle 1532): 1072 mm^3; effect in delaying tumor growth or prolonging survival (RMS559 xenograft [6]): no significant effect; phosphorylation of FGFR4 and ERK1/2 (western blot) [8]: inhibited phosphorylation of FGFR4 and a downstream target ERK1/2 in a dose-dependent manner; half-life (in vivo): ~4 h; objective response rate (ORR) [10]: 13.7% |
| CCc1c2c(nc3ccc(OC(=O)N4CCC(N5CCCCC5)CC4)cc13)-c1cc3c(c(=O)n1C2)COC(=O)[C@]3(O)CC [irinotecan] | 15 days | 29 days | 51.5 days | 48 days | 50 mg/kg | toxicity of dose (SCMC xenograft [9]; irinotecan 50 mg/kg iv on Monday, SCMC xenograft study): toxic |
| Cc1ccc(C(=O)Nc2ccc(CN3CCN(C)CC3)c(C(F)(F)F)c2)cc1C#Cc1cnc2cccnn12 [ponatinib] |  |  |  |  |  | effect on tumor growth in mice [12]: inhibit mutant FGFR4-driven RMS tumor growth |
| CC[C@]1(O)C[C@H]2CN(CCc3c([nH]c4ccccc34)[C@@](C(=O)OC)(c3cc4c(cc3OC)N(C=O)[C@H]3[C@@](O)(C(=O)OC)[C@H](OC(C)=O)[C@]5(CC)C=CCN6CC[C@]43[C@@H]65)C2)C1 [vincristine] | 15 days | 23 days | 41 days | 37 days | 0.4 mg/kg | average tumor volume (RMS559 xenograft [5]; day 18 of treatment, futibatinib 15 mg/kg oral M-F 3 weeks, irinotecan 25 mg/kg iv Monday 3 weeks, vincristine 0.4 mg/kg iv once): 1016 mm^3 |
